Experimental data: ChEMBL document CHEMBL1123948, “Synthesis and biological evaluation of poly-gamma-glutamyl metabolites of 10-deazaaminopterin and 10-ethyl-10-deazaaminopterin” (J Med Chem, 1988)
pIC50: −log10 of the molar value. Where “and” joins values, the source holds several entries; their conditions need not be identical. Identical values can stand only once.

Experiments:
Lacticaseibacillus casei [1] = experiment: Inhibitory activity against the growth of Lactobacillus casei (ATCC 7469) was determined (glutamate residue 6); format: functional, organism-based
Lacticaseibacillus casei [2] = experiment: Inhibitory activity against the growth of Lactobacillus casei (ATCC 7469) was determined (glutamate residue 3); format: functional, organism-based
Dihydrofolate reductase [3] = target: T1, Dihydrofolate reductase (Lactobacillus casei, UniProt P00381); experiment: Inhibitory activity against dihydrofolate reductase in Lactobacillus casei was determined (glutamate residue 3); format: functional, Lacticaseibacillus casei
T1 sequence (P00381 whole entry): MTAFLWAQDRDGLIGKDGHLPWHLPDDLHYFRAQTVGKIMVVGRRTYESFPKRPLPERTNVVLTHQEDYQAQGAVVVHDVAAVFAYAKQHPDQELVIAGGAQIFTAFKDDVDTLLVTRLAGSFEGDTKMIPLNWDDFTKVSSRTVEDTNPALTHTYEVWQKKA

[4] = test system: Enterococcus hirae (Streptococcus faecium ATCC 8043); experiment: Inhibitory activity against the growth of Streptococcus faecium (ATCC 8043) was determined (glutamate residue 6)
Lacticaseibacillus casei [5] = experiment: Inhibitory activity against the growth of Lactobacillus casei (ATCC 7469) was determined (glutamate residue 5); format: functional, organism-based
Lacticaseibacillus casei [6] = experiment: Inhibitory activity against thymidylate synthase in Lactobacillus casei was determined (glutamate residue 4); format: functional, organism-based
Dihydrofolate reductase [7] = target: T1, Dihydrofolate reductase; experiment: Inhibitory activity against dihydrofolate reductase in Lactobacillus casei was determined (glutamate residue 2); format: functional, Lacticaseibacillus casei
Lacticaseibacillus casei [8] = experiment: Inhibitory activity against thymidylate synthase in Lactobacillus casei was determined (glutamate residue 6); format: functional, organism-based
Lacticaseibacillus casei [9] = experiment: Inhibitory activity against the growth of Lactobacillus casei (ATCC 7469) was determined (glutamate residue 2); format: functional, organism-based
Lacticaseibacillus casei [10] = experiment: Inhibitory activity against the growth of Lactobacillus casei (ATCC 7469) was determined (glutamate residue 4); format: functional, organism-based
Dihydrofolate reductase [11] = target: T1, Dihydrofolate reductase; experiment: Inhibitory activity against dihydrofolate reductase in Lactobacillus casei was determined (glutamate residue 4); format: functional, Lacticaseibacillus casei
Dihydrofolate reductase [12] = target: T1, Dihydrofolate reductase; experiment: Inhibitory activity against dihydrofolate reductase in Lactobacillus casei was determined (glutamate residue 5); format: functional, Lacticaseibacillus casei
Lacticaseibacillus casei [13] = experiment: Inhibitory activity against thymidylate synthase in Lactobacillus casei was determined (glutamate residue 1); format: functional, organism-based
Lacticaseibacillus casei [14] = experiment: Inhibitory activity against thymidylate synthase in Lactobacillus casei was determined (glutamate residue 3); format: functional, organism-based
Lacticaseibacillus casei [15] = experiment: Inhibitory activity against thymidylate synthase in Lactobacillus casei was determined (glutamate residue 5); format: functional, organism-based
Lacticaseibacillus casei [16] = experiment: Inhibitory activity against thymidylate synthase in Lactobacillus casei was determined (glutamate residue 2); format: functional, organism-based
Dihydrofolate reductase [17] = target: T1, Dihydrofolate reductase; experiment: Inhibitory activity against dihydrofolate reductase in Lactobacillus casei was determined (glutamate residue 6); format: functional, Lacticaseibacillus casei
Lacticaseibacillus casei [18] = experiment: Inhibitory activity against the growth of Lactobacillus casei (ATCC 7469) was determined (glutamate residue 1); format: functional, organism-based

Row | pIC50 (Dihydrofolate reductase [3]) | pIC50 (Lacticaseibacillus casei [6]) | pIC50 (Dihydrofolate reductase [7]) | pIC50 (Dihydrofolate reductase [11]) | pIC50 (Dihydrofolate reductase [12]) | pIC50 (Lacticaseibacillus casei [13]) | pIC50 (Lacticaseibacillus casei [14]) | pIC50 (Lacticaseibacillus casei [15]) | pIC50 (Lacticaseibacillus casei [16]) | pIC50 (Dihydrofolate reductase [17]) | SMILES | pIC50 (Lacticaseibacillus casei [1]) | pIC50 (Lacticaseibacillus casei [2]) | pIC50 [4] | pIC50 (Lacticaseibacillus casei [5]) | pIC50 (Lacticaseibacillus casei [8]) | pIC50 (Lacticaseibacillus casei [9]) | pIC50 (Lacticaseibacillus casei [10]) | pIC50 (Lacticaseibacillus casei [18])
1 | 7.66 | 5.26 | 7.74 and 7.62 | 7.70 | 7.68 | < 3.52 | 4.96 | 5.46 | 4.06 | 7.47 | Nc1nc(N)c2nc(CCc3ccc(C(=O)N[C@@H](CCC(=O)O)C(=O)O)cc3)cnc2n1 | 7.05 | 9.22 | < 5.52 | 7.85 | 5.64 | 10.05 | 8.52 | 10.10
2 | – | 4.85 | – | – | – | < 3.52 | 4.55 | 5.13 | 3.77 | – | CCC(Cc1cnc2nc(N)nc(N)c2n1)c1ccc(C(=O)N[C@@H](CCC(=O)O)C(=O)O)cc1 (stereo not given in full) [EDATREXATE] | – | 9.00 | – | 7.05 | – | 9.80 | 8.05 | 9.20

Row | SMILES | pIC50 (Dihydrofolate reductase [3]) | pIC50 (Lacticaseibacillus casei [6]) | pIC50 (Dihydrofolate reductase [7]) | pIC50 (Dihydrofolate reductase [11]) | pIC50 (Dihydrofolate reductase [12]) | pIC50 (Lacticaseibacillus casei [13]) | pIC50 (Lacticaseibacillus casei [14]) | pIC50 (Lacticaseibacillus casei [15]) | pIC50 (Lacticaseibacillus casei [16]) | pIC50 (Dihydrofolate reductase [17]) | pIC50 (Lacticaseibacillus casei [1]) | pIC50 (Lacticaseibacillus casei [2]) | pIC50 [4] | pIC50 (Lacticaseibacillus casei [5]) | pIC50 (Lacticaseibacillus casei [8]) | pIC50 (Lacticaseibacillus casei [9]) | pIC50 (Lacticaseibacillus casei [10]) | pIC50 (Lacticaseibacillus casei [18])
3 | CN(Cc1cnc2nc(N)nc(N)c2n1)c1ccc(C(=O)N[C@@H](CCC(=O)O)C(=O)O)cc1 [METHOTREXATE] | – | 6.74 | – | – | – | 4.00 | 5.96 | 6.55 | 5.22 | – | 7.57 | 9.70 | < 5.10 | 8.66 | 6.55 | 10.05 | 9.10 | –
